Data taken from patent US11760716B2, “Drug crystallization under microgravity conditions” (SPACEPHARMA R&D ISRAEL LTD., priority 2018, dated 2023).

Experiments:
[1] = Crystal width from scanning electron microscope micrographs (FIG. 3); assay type: physicochemical
Description: Gradual cooling of the vilanterol ethanolic solution (25 mg/ml) in rubber container (4), placed in one storage compartment (3), was carried out by reducing the temperature from 37° C. to 4° C. by storing the container in a refrigerator inside the ISS until the return to Earth. The results obtained upon return to Earth show the vilanterol space grown crystals in rubber container (4).
Vilanterol (250 mg) was dissolved in 10 ml ethanol to result in a vilanterol solution having a final concentration of 25 mg/ml. Main compartment (2) of cassette (1) (FIG. 1A) was filled with 2 ml of the prepared vilanterol/ethanol solution. In addition, one rubber container (4), placed in one storage compartment (3), was filled with 1 ml heptane (anti-solvent). Cassette (1) was kept at 37° C.
After 10 days from launch into space, one plunger was released thereby activating one rubber container (4) in one storage compartment (3), allowing 1 ml of heptane to flow into main compartment (2), which, as mentioned above, comprises the vilanterol/ethanol solution. […]
The experiments performed in space on board of the ISS yielded crystals that were substantially larger and of higher crystalline order compared to their Earth-grown equivalents. […] The quantity of material manufactured in orbit was sufficient for complete characterization study and further processing tests. […]

[2] = Highest concentration of vilanterol dissolvable in ethanol at 37° C.; assay type: physicochemical; conditions: ethanol as the solvent
Description: In order to obtain optimal results in space, adjustment of the Vilanterol crystallization protocol to fit the system of the invention, and vice versa, was required. The original main compartment volume ranged between 0.1 to 1 ml. To maximize the amount of drug used in the experiment, and still meet the safety limitation approved by NASA, the main compartment (2) size was increased to 2 ml. The vilanterol concentration was adjusted according to the maximum temperature in which the payload could be stored on the ISS (37° C.).

width of crystals ([1]; crystals crystalized in space under microgravity (FIG. 3, right hand panel)): 10-20 microns
width of crystals ([1]; crystals crystalized on Earth, 1 g (FIG. 3, left hand panel)): a few
highest concentration of vilanterol that could be dissolved [2]: 2.5 % w/v
SMILES: OCc1cc([C@@H](O)CNCCCCCCOCCOCc2c(Cl)cccc2Cl)ccc1O [vilanterol, 4-{(1R)-2-[(6-{2-[(2,6-dichlorobenzyl)oxy]ethoxy}hexyl)amino]-1-hydroxyethyl}-2-(hydroxymethyl)phenol]
